Measured values taken from patent publication US20210106703A1, “RADIOIMMUNOCONJUGATES IN COMBINATION WITH OTHER DRUGS AS TREATMENT AGAINST NHL” (Nordic Nanovector ASA, priority 2017, published 2021).
“Also recorded” adds a separate entry of the source.

Assays:
Format in all cases: cell-based, human
U-2932 cells [1] = test: Real Time Glo viability screen and validation, Betalutin with PARP or cell cycle kinase inhibitors (Examples 4, 7); settings: for BLISS analysis, combination with Betalutin versus expected additive effect: U-2932, significant = more than twice the SD of Betalutin alone
Description: (§1) DLBCL cell lines U2932 and RIVA were maintained in RPMI 1640-GlutaMAX medium (Gibco) supplemented with 15% fetal bovine serum (Biowest) and 1% penicillin-streptomycin (Gibco) at 37° C. in a humidified atmosphere containing 5% CO2. Cells were split twice a week 1:7 and diluted 2-4 days before start of the experiment, to ensure they are in exponential growth at the beginning of the experiment.
(§2) Cells were treated in 6-well plates without shaking for 18 h with Betalutin at a final concentration of 1 μg/ml for U2932 and 0.5 μg/ml for RIVA. After treatment, PBS was added to the cells, and the cells pelleted. Cells were first resuspended in 1 ml PBS, then washed twice in PBS and finally diluted in growth medium to a final concentration of 2.5*10^6 cells/ml.
(§3) Cells density measurements were performed the day before seeding. Based on these measurements cells were seeded in 384-well plates at a density of 3000 cells per well in a culturing volume of 25 μl (resulting in start titers: 120 000 cells/ml) using a robot. For measuring viability using Real Time Glo (Promega, WI, USA), the Cell Viability Substrate and NanoLuc® Enzyme were diluted 1:500 in growth medium, and 25 μL of diluted reagents dispensed in each well by a robot. All reagents were equilibrated to 37° C. Cells were incubated with the reaction mix for 1 h at 37° C. before the first measurement of luminescence. Measurements were repeated as often as required within 72 h after adding the reagents. A Tecan SPARK 10M plate reader (Tecan, SUI) was used to measure luminescence, with the integration time set to 1 sec.
(§4) The screen was performed in 384-well plate with selected PARP inhibitors (stock solutions 10 mM in DMSO) acquired from SelleckChem (Selleckchem, TX, USA). To include no-drug controls, the drug panel (Table 6) was divided on two plates. Due to previous observations of cells growing poorly in wells located at the edges of the plates, the two outer most rows and columns were not used. As previously mentioned three different drug concentrations were used in the screen, 10 nM and 1 μM for U2932 and 10 and 100 nM for RIVA.
(§5) Candidate hits were identified using the Bliss Independence test for synergy. The effect of each drug alone at each concentration was calculated as the fraction of dead cells as compared to control cells Fa=(1−(RLUdrug/avgRLUcontrol), a similar calculation was performed for the effect of Betalutin alone Fb=(1−(avgRLUBetalutin/avgRLUcontrol). Through the following equation we found the expected additive effect of the combination of drug+Betalutin: Expected effect (E)Fab=(Fa+Fb−Fa*Fb). We subtracted this expected effect from the measured effect (M)Fab=(1−(RLUDrug+Betalutin/avgRLUcontrol) to get a value (Diff)Fab representing how the measured effect differed from the expected additive effect of the combination. This value was normalized to the survival fraction of drug alone: (Diff)Fab#=(Diff)Fab/(1−Fa). Furthermore, to get a measure of how big the well-to-well variation was, we calculated the standard deviation for the effect of Betalutin alone in the 48 control wells on each plate: (STDEV)Fb=(RLUBetalutin/RLUcontrol)−(averageRLUBetalutin/averageRLUcontrol). Drugs with a value (Diff)Fab#two times higher than the standard deviation of Betalutin treated controls, (STDEV)Fb, were scored as hits.
as §3, with “Measurements were repeated as often as required within 72 h after adding the reagents. A Tecan SPARK 10M plate reader (Tecan, SUI) was used to measure luminescence, with the integration time set to 1 sec.” left out

RIVA cells = test: Real Time Glo viability screen, Betalutin with PARP or cell cycle kinase inhibitors (Examples 4, 7); settings: for BLISS analysis, combination with Betalutin versus expected additive effect: significant = more than twice the SD of Betalutin alone
Description: as §1, §2, §3, §4, §5
as §3, with “Measurements were repeated as often as required within 72 h after adding the reagents. A Tecan SPARK 10M plate reader (Tecan, SUI) was used to measure luminescence, with the integration time set to 1 sec.” left out

U-2932 cells [2] = test: Real Time Glo viability screen and validation, Betalutin with PARP or cell cycle kinase inhibitors (Examples 4, 7); settings: for Effect of monotreatment on proliferation: U-2932, validation screen, 0-1280 nM
[3] = test system: CD133 and CD44 at the DOHH2 cell surface; test: Expression of stem cell markers after RIT (flow cytometry); settings: DOHH2, 6 MBq/mL for 18 h, up to 9 days post-RIT
Description: Cells were harvested at 0, 2 h, 18 h and each day from 1 d to 10 d of RIT. At each time point, cells were fixed with PFA 4% for 10 minutes, washed twice with PBS and sterilely stored in PBS at 4° C. Stem cell markers were detected with anti-CD133-FITC (clone: AC133, Milteniy) and anti-CD44-APC (clone: IM7, Merck Millipore). 0.5×10^6 cells were saturated for 1 h in PBS-BSA 0.5%. Next cells were centrifuged and incubated with anti-CD133-FITC (2 μL) and anti-CD44-APC (0.125 μg) for 1 h at room temperature in the dark. Finally, cells were rinsed twice and analysed using Gallios® flow cytometer (Beckman Coulter).
For a preliminary study, investigation of the expression of CD133 and CD44 at the surface of cells treated for 18 h with 6 MBq/mL ^177Lu-lilotomab and ^177Lu-rituximab was done.

Rec-1 cells [4] = test: Apoptosis induction (Annexin V/7-AAD, Muse flow cytometer); settings: Rec-1, 6 MBq/mL radiolabelled mAb for 18 h, peak time 72 h
Description: (§6) Cells were harvested at 0, 2 h, 18 h, 1 d, 2 d, 3 d of RIT. At each time point, apoptosis was detected with […] from Merck Millipore (Annexin V Kit with 7-AAD) in the dark for 30 min at room temperature before analysis using Muse® flow cytometer

Ramos cells [5] = test: as above; settings: 6 MBq/mL radiolabelled mAb for 18 h, peak time 72 h
Description: as §6

DOHH2 cells [6] = test: as above; settings: DOHH2, 6 MBq/mL radiolabelled mAb for 18 h, peak time 72 h
Description: as §6

Rec-1 cells [7] = test: Cell cycle analysis (PI, Muse flow cytometer); settings: Rec-1, 6 MBq/mL, at 24 h
Description: (§7) Cells were harvested at day 0, 2 h, 18 h, 1 d, 2 d, 3 d, of RIT then fixed in 70% ethanol at −20° C. for 3 hours and stained with Cell Cycle kit (with PI) reagent from Merck Millipore in the dark for 30 min at room temperature before analysis using a Muse® flow cytometer. The percentage of cells in G0/G1, S and G2/M phases was then calculated (mean of three experiments in triplicate).
(§8) At different times after start of incubation, proteins were extracted to measure the CDK1 phosphorylation levels, in parallel, proliferation was determined and at 18 h and 24 h after start of incubation, the percentage of cells in G2/M was assessed (experiments were performed three time except the cell cycle analysis).
(§9) Cells were harvested at 0 h, 2 h, 18 h, 1 d, 2 d, 3 d, and fixed in 70% ethanol at −20° C. for at least 3 h. After staining with the Muse® Cell Cycle Assay Kit (Merck Millipore, Molsheim, France) using propidium iodide in the dark at room temperature for 30 min, cell cycle distribution was analyzed using a Muse® flow cytometer. The percentage of cells in the G0/G1, S and G2/M was calculated (mean of three experiments in triplicate) and the effect of WEE-1 and MYT-1 kinase inhibitors on the cell cycle was assessed.

Ramos cells [8] = test: Cell cycle analysis (PI, Muse flow cytometer); settings: 6 MBq/mL, at 24 h
Description: as §7, §8, §9

DOHH2 cells [9] = test: Cell cycle analysis (PI, Muse flow cytometer); settings: DOHH2, 6 MBq/mL, at 24 h
Description: as §7, §8, §9

[10] = U-2932, drug 1 μM + Betalutin 1 μg/ml
[11] = RIVA, drug 100 nM + Betalutin 0.5 μg/ml

Compound	Growth inhibitory effect, drug alone (U-2932 cells [1]; U-2932, drug 10 nM)	Growth inhibitory effect, drug combined with Betalutin (U-2932 cells [1]; [10])	BLISS analysis, combination with Betalutin versus expected additive effect (U-2932 cells [1])	Growth inhibitory effect, drug alone (RIVA cells; RIVA, drug 10 nM)	Growth inhibitory effect, drug combined with Betalutin (RIVA cells; [11])	BLISS analysis, combination with Betalutin versus expected additive effect (RIVA cells; RIVA)	Effect of monotreatment on proliferation (U-2932 cells [2])	also measured
CN(C)Cc1ccc(-c2nc3cccc4c3n2CCNC4=O)cc1 [AG-14361]	only a minor inhibitory effect; also recorded: no growth inhibitory effect	potentiated the proliferation inhibitory effect of Betalutin; also recorded: stronger growth inhibition than AG-14361 alone	strongest combinatory effect	only a minor inhibitory effect; also recorded: no growth inhibitory effect	potentiated the proliferation inhibitory effect of Betalutin; also recorded: stronger growth inhibition than AG-14361 alone	strongest combinatory effect	–	Growth inhibitory effect, drug combined with Betalutin (U-2932 cells [1]; U-2932, drug 10 nM + Betalutin 1 μg/ml): did not enhance the growth inhibitory effect of Betalutin; Growth inhibitory effect, drug alone (U-2932 cells [1]; U-2932, drug 1 μM): inhibited proliferation; Growth inhibitory effect, drug combined with Betalutin (RIVA cells; RIVA, drug 10 nM + Betalutin 0.5 μg/ml): did not enhance the growth inhibitory effect of Betalutin; Growth inhibitory effect, drug alone (RIVA cells; RIVA, drug 100 nM): inhibited proliferation
CC[C@@H]1C(=O)N(C)c2cnc(Nc3ccc(C(=O)NC4CCN(C)CC4)cc3OC)nc2N1C1CCCC1 [BI2536]	–	–	significance was only reached in U-2932 cells	–	–	significance was only reached in U-2932 cells	blocked proliferation almost completely at concentrations above 40 nM	inhibition at 0.01 µM (U-2932 cells [1]; Homo sapiens, U2932, read-out: Inhibition of proliferation, drug alone): > 80%; Drug concentration at which synergism with Betalutin is evident (CI, Chou-Talalay) (U-2932 cells [2]; U-2932, Betalutin 0.5, 1 or 2 μg/ml, day 5): 40 nM; inhibition at 0.01 µM (RIVA cells; Homo sapiens, read-out: Inhibition of proliferation, drug alone): > 80%
C[C@@H](Oc1cc(-n2cnc3ccc(CN4CCN(C)CC4)cc32)sc1C(N)=O)c1ccccc1C(F)(F)F [GSK461364]	less potency than BI2536	–	significantly greater than the expected additive effect	less potency than BI2536	–	significantly greater than the expected additive effect	blocked proliferation almost completely at concentrations above 40 nM	–
COc1cc(Nc2ncc3c(n2)-c2ccc(Cl)cc2C(c2c(F)cccc2OC)=NC3)ccc1C(=O)O [MLN8237]	insufficient to inhibit proliferation	enhanced	–	insufficient to inhibit proliferation	enhanced	significantly greater effect than the expected additive effect	impaired proliferation at concentrations up to 160 nM	inhibition at 1 µM (U-2932 cells [1]; Homo sapiens, U2932, 144 h, U-2932, drug 1 μM, day 6, read-out: Growth inhibition, drug alone): ~40%; inhibition at 0.1 µM (RIVA cells; Homo sapiens, 144 h, RIVA, drug 100 nM, day 6, read-out: Growth inhibition, drug alone): ~60%
CNCc1ccc(-c2[nH]c3cc(F)cc4c3c2CCNC4=O)cc1 [Rucaparib]	–	potentiated the proliferation inhibitory effect of Betalutin; also recorded: stronger growth inhibition than Betalutin alone	larger than the expected additive effect	–	potentiated the proliferation inhibitory effect of Betalutin; also recorded: stronger growth inhibition than Betalutin alone	larger than the expected additive effect	–	Growth inhibitory effect, drug alone (U-2932 cells [1]; U-2932, all tested concentrations (10 nM, 1 μM)): no growth inhibitory effect; Growth inhibitory effect, drug alone (RIVA cells; RIVA, all tested concentrations (10, 100 nM)): no growth inhibitory effect
^177Lu-rituximab	–	–	–	–	–	–	–	Proportion of cells expressing CD44 and CD133 [3]: strongly increased; Apoptosis level (Rec-1 cells [4]): 79±16%; Apoptosis level (Ramos cells [5]): 56±12%; Apoptosis level (DOHH2 cells [6]): 97±3%; Proportion of cells showing a G2/M cell cycle arrest (Rec-1 cells [7]): 40±11%; Proportion of cells showing a G2/M cell cycle arrest (Ramos cells [8]): 56±13%; Proportion of cells showing a G2/M cell cycle arrest (DOHH2 cells [9]): 38±2%
